Each compound was assayed against Histamine H1 receptor (Cavia porcellus) (UniProt P31389) (assay: Antagonist activity at histamine H1 receptor in Cavia porcellus (guinea pig) ileum).
Format: tissue-based

Chain of Histamine H1 receptor (Cavia porcellus) (P31389 whole entry): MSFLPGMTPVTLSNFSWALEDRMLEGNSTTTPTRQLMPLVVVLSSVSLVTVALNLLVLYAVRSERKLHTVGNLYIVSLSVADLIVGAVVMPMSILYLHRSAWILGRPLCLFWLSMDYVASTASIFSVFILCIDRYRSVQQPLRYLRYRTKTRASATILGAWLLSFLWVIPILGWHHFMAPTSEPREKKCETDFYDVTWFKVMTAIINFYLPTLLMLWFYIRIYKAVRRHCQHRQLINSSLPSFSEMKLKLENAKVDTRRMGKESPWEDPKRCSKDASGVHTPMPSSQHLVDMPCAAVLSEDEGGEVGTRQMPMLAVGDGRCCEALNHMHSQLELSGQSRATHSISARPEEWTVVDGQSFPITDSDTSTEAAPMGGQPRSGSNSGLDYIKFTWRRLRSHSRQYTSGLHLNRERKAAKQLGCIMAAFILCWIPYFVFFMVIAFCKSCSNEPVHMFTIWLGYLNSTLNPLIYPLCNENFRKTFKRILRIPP

SMILES | Activity
CN(C)C[C@@H]1O[C@H](c2ccccc2)c2ccccc21 (relative stereo) | 0.0039 µM/L
O=C(CCN1CCC(Cc2ccccc2)CC1)Nc1ccccc1 | 1.51 µM/L
O=C(CCN1CCN(Cc2ccccc2)CC1)Nc1ccccc1Cl | 0.836 µM/L
Cc1ccccc1C(=O)NCCN1CCN(Cc2ccccc2)CC1 | 7.12 µM/L
CN(C)C[C@@H]1O[C@@H](c2ccccc2)c2ccccc21 (relative stereo) | 0.0039 µM/L
O=C(CCN1CCN(Cc2ccccc2)CC1)Nc1ccccc1 | 2.17 µM/L
O=C(NCCN1CCN(Cc2ccccc2)CC1)c1ccccc1[N+](=O)[O-] | 1.32 µM/L
O=C(NCCN1CCC(Cc2ccccc2)CC1)c1ccccc1Br | 0.661 µM/L
Cc1ccccc1C(=O)NCCN1CCC(Cc2ccccc2)CC1 | 1.07 µM/L
O=C(NCCN1CCN(Cc2ccccc2)CC1)c1ccccc1 | 6.94 µM/L
O=C(CCN1CCN(Cc2ccccc2)CC1)Nc1ccccc1[N+](=O)[O-] | 1.7 µM/L
CN(C)[C@@H]1CO[C@@H](c2ccccc2)c2ccccc21 (relative stereo) | 0.51 µM/L
O=C(NCCN1CCC(Cc2ccccc2)CC1)c1ccccc1 | 1.55 µM/L
CN(C)CCOC1c2ccccc2-c2ccccc21 | 0.039 µM/L
O=C(NCCN1CCC(Cc2ccccc2)CC1)c1ccccc1Cl | 0.799 µM/L
O=C(NCCN1CCN(Cc2ccccc2)CC1)c1ccccc1Cl | 0.696 µM/L
O=C(NCCN1CCN(Cc2ccccc2)CC1)c1ccccc1Br | 0.421 µM/L
O=C(NCCN1CCN(Cc2ccccc2)CC1)c1ccccc1I | 0.345 µM/L

Next, values leading:

Activity | SMILES
0.963 µM/L | COc1ccccc1NC(=O)CCN1CCC(Cc2ccccc2)CC1
0.375 µM/L | O=C(NCCN1CCN2Cc3[nH]c4ccccc4c3CC2C1)c1ccccc1[N+](=O)[O-] (centres undefined)
1.28 µM/L | O=C(CCN1CCN2Cc3[nH]c4ccccc4c3CC2C1)Nc1ccccc1F (centres undefined)
1.32 µM/L | O=C(CCN1CCN2Cc3ccccc3CC2C1)Nc1ccccc1[N+](=O)[O-] (centres undefined)
0.364 µM/L | COc1ccccc1C(=O)NCCN1CCN2Cc3[nH]c4ccccc4c3CC2C1 (centres undefined)
0.832 µM/L | O=C(CCN1CCC(Cc2ccccc2)CC1)Nc1ccccc1F
0.535 µM/L | O=C(NCCN1CCN2Cc3[nH]c4ccccc4c3CC2C1)c1ccccc1 (centres undefined)
0.677 µM/L | O=C(CCN1CCN2Cc3ccccc3CC2C1)Nc1ccccc1Cl (centres undefined)
0.477 µM/L | CCc1ccccc1NC(=O)CCN1CCC(Cc2ccccc2)CC1
0.778 µM/L | CCc1ccccc1NC(=O)CCN1CCN(Cc2ccccc2)CC1
1.32 µM/L | O=C(CCN1CCN(Cc2ccccc2)CC1)Nc1ccccc1F
1.34 µM/L | O=C(CCN1CCN2Cc3ccccc3CC2C1)Nc1ccccc1 (centres undefined)
0.206 µM/L | O=C(NCCN1CCN2Cc3[nH]c4ccccc4c3CC2C1)c1ccccc1Cl (centres undefined)
1.6 µM/L | O=C(CCN1CCN2Cc3[nH]c4ccccc4c3CC2C1)Nc1ccccc1 (centres undefined)
0.525 µM/L | CCc1ccccc1NC(=O)CCN1CCN2Cc3ccccc3CC2C1 (centres undefined)
1.74 µM/L | O=C(CCN1CCN2Cc3[nH]c4ccccc4c3CC2C1)Nc1ccccc1[N+](=O)[O-] (centres undefined)
0.979 µM/L | O=C(CCN1CCN2Cc3[nH]c4ccccc4c3CC2C1)Nc1ccccc1Cl (centres undefined)
0.634 µM/L | CCc1ccccc1NC(=O)CCN1CCN2Cc3[nH]c4ccccc4c3CC2C1 (centres undefined)
0.283 µM/L | Cc1ccccc1C(=O)NCCN1CCN2Cc3[nH]c4ccccc4c3CC2C1 (centres undefined)
0.925 µM/L | Nc1ccccc1C(=O)NCCN1CCN2Cc3[nH]c4ccccc4c3CC2C1 (centres undefined)
0.561 µM/L | O=C(CCN1CCC(Cc2ccccc2)CC1)Nc1ccccc1Cl
